# Measurements from patent US20230085307A1, “PYRIDAZINONE COMPOUND AND HERBICIDE” (NISSAN CHEMICAL CORPORATION, priority 2019, published 2023).
# Experiments:
# wild oat [1] = assay: Test Example 4: herbicidal effect by soil treatment (Table 19, symbol I); assay type: in vivo, wild oat (Avena fatua)
# Summary of the method: (§1)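 Seeds were sown in sterilized diluvial soil and covered with about 1.5 cm of soil. An emulsion formulation diluted with water to a predetermined herbicide amount was sprayed evenly onto the soil surface. Plants grew in a greenhouse at 25° C. to 30° C., and the effect was scored three weeks after application using criteria from an earlier test.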
# blackgrass [2] = assay: Test Example 4: herbicidal effect by soil treatment (Table 19, symbol J); assay type: in vivo, blackgrass (Alopecurus myosuroides)
# Summary of the method: as §1
# redroot pigweed [3] = assay: Test Example 4: herbicidal effect by soil treatment (Table 19, symbol N); assay type: in vivo, redroot pigweed (Amaranthus retroflexus)
# Summary of the method: as §1
# blackgrass [4] = assay: Test Example 5: herbicidal effect by foliage application, plastic box (Table 20, symbol J); assay type: in vivo, blackgrass (Alopecurus myosuroides); details: foliage application, three weeks after application
# Summary of the method: (§2)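 Plants sown in sterilized diluvial soil and grown 14 days in a greenhouse at 25° C to 30° C, then sprayed on the foliage with the compound's emulsion diluted in water to a predetermined herbicide amount. Injury to weeds and crops scored three weeks after application on a visual rating scale.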
# persian speedwell [5] = assay: Test Example 5: herbicidal effect by foliage application, plastic box (Table 20, symbol R); assay type: in vivo, Persian speedwell (Veronica persica); details: foliage application, three weeks after application
# Summary of the method: as §2
# Chinese sprangletop = assay: Test Example 3: herbicidal effect by foliage application, Wagner pot (Table 18, symbol D); assay type: in vivo, chinese sprangletop (Leptochloa chinensis)
# Summary of the method: (§3)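 Plants were sown in alluvial soil held under 0.1–0.5 cm standing water and grown 14 days in a greenhouse at 25–30 °C. An emulsifiable formulation, water-diluted to the set dose, was then sprayed onto the foliage, and effects were scored three weeks later using previously defined criteria.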
# velvetleaf [6] = assay: Test Example 5: herbicidal effect by foliage application, plastic box (Table 20, symbol M); assay type: in vivo, velvetleaf (Abutilon theophrasti); details: foliage application, three weeks after application
# Summary of the method: as §2
# Italian ryegrass [7] = assay: Test Example 4: herbicidal effect by soil treatment (Table 19, symbol K); assay type: in vivo, Italian ryegrass (Lolium multiflorum)
# Summary of the method: as §1
# chickweed [8] = assay: Test Example 5: herbicidal effect by foliage application, plastic box (Table 20, symbol P); assay type: in vivo, common chickweed (Stellaria media); details: foliage application, three weeks after application
# Summary of the method: as §2
# green foxtail [9] = assay: Test Example 5: herbicidal effect by foliage application, plastic box (Table 20, symbol G); assay type: in vivo, green foxtail (Setaria viridis); details: foliage application, three weeks after application
# Summary of the method: as §2
# windgrass [10] = assay: Test Example 5: herbicidal effect by foliage application, plastic box (Table 20, symbol L); assay type: in vivo, windgrass (Apera spica-venti); details: foliage application, three weeks after application
# Summary of the method: as §2
# rice flat sedge = assay: Test Example 3: herbicidal effect by foliage application, Wagner pot (Table 18, symbol E); assay type: in vivo, rice flat sedge (Cyperus iria)
# Summary of the method: as §3
# velvetleaf [11] = assay: Test Example 4: herbicidal effect by soil treatment (Table 19, symbol M); assay type: in vivo, velvetleaf (Abutilon theophrasti)
# Summary of the method: as §1
# windgrass [12] = assay: Test Example 4: herbicidal effect by soil treatment (Table 19, symbol L); assay type: in vivo, windgrass (Apera spica-venti)
# Summary of the method: as §1
# barnyard grass [13] = assay: Test Example 3: herbicidal effect by foliage application, Wagner pot (Table 18, symbol H); assay type: in vivo, barnyard grass (Echinochloa crus-galli)
# Summary of the method: as §3
# chickweed [14] = assay: Test Example 4: herbicidal effect by soil treatment (Table 19, symbol P); assay type: in vivo, common chickweed (Stellaria media)
# Summary of the method: as §1
# redroot pigweed [15] = assay: Test Example 5: herbicidal effect by foliage application, plastic box (Table 20, symbol N); assay type: in vivo, redroot pigweed (Amaranthus retroflexus); details: foliage application, three weeks after application
# Summary of the method: as §2
# southern crabgrass [16] = assay: Test Example 4: herbicidal effect by soil treatment (Table 19, symbol F); assay type: in vivo, southern crabgrass (Digitaria ciliaris)
# Summary of the method: as §1
# wild oat [17] = assay: Test Example 5: herbicidal effect by foliage application, plastic box (Table 20, symbol I); assay type: in vivo, wild oat (Avena fatua); details: foliage application, three weeks after application
# Summary of the method: as §2
# lambsquarters [18] = assay: Test Example 4: herbicidal effect by soil treatment (Table 19, symbol O); assay type: in vivo, lambsquarters (Chenopodium album)
# Summary of the method: as §1
# southern crabgrass [19] = assay: Test Example 5: herbicidal effect by foliage application, plastic box (Table 20, symbol F); assay type: in vivo, southern crabgrass (Digitaria ciliaris); details: foliage application, three weeks after application
# Summary of the method: as §2
# barnyard grass [20] = assay: Test Example 5: herbicidal effect by foliage application, plastic box (Table 20, symbol H); assay type: in vivo, barnyard grass (Echinochloa crus-galli); details: foliage application, three weeks after application
# Summary of the method: as §2
# lambsquarters [21] = assay: Test Example 5: herbicidal effect by foliage application, plastic box (Table 20, symbol O); assay type: in vivo, lambsquarters (Chenopodium album); details: foliage application, three weeks after application
# Summary of the method: as §2
# green foxtail [22] = assay: Test Example 4: herbicidal effect by soil treatment (Table 19, symbol G); assay type: in vivo, green foxtail (Setaria viridis)
# Summary of the method: as §1
# Italian ryegrass [23] = assay: Test Example 5: herbicidal effect by foliage application, plastic box (Table 20, symbol K); assay type: in vivo, Italian ryegrass (Lolium multiflorum); details: foliage application, three weeks after application
# Summary of the method: as §2
# barnyard grass [24] = assay: Test Example 4: herbicidal effect by soil treatment (Table 19, symbol H); assay type: in vivo, barnyard grass (Echinochloa crus-galli)
# Summary of the method: as §1
# persian speedwell [25] = assay: Test Example 4: herbicidal effect by soil treatment (Table 19, symbol R); assay type: in vivo, Persian speedwell (Veronica persica)
# Summary of the method: as §1
compound,measurement,setting,value
Cc1nn(C)c(=O)c(-c2c(-c3ccccc3OCC(F)F)sc3ccccc23)c1O [1-116],"I: wild oat, herbicidal effect rating",wild oat [1]; AAH 320 g/ha,1 (Herbicidal rate of 5% or more and less than 20%)
same,"J: blackgrass, herbicidal effect rating",blackgrass [2]; AAH 320 g/ha,1 (Herbicidal rate of 5% or more and less than 20%)
same,"N: redroot pigweed, herbicidal effect rating",redroot pigweed [3]; AAH 320 g/ha,5 (Herbicidal rate of 90% or more (almost completely withered))
same,"J: blackgrass, herbicidal effect",blackgrass [4]; AAH 320 g/ha,4 (Herbicidal rate of 70% or more and less than 90%)
same,"R: persian speedwell, herbicidal effect",persian speedwell [5]; AAH 320 g/ha,5 (Herbicidal rate of 90% or more (almost completely withered))
same,"herbicidal effect on D (Chinese sprangletop), rating 0-5",Chinese sprangletop; 320 g/ha,2 (Herbicidal rate of 20% or more and less than 40%)
same,"M: velvetleaf, herbicidal effect",velvetleaf [6]; AAH 320 g/ha,5 (Herbicidal rate of 90% or more (almost completely withered))
same,"K: Italian ryegrass, herbicidal effect rating",Italian ryegrass [7]; AAH 320 g/ha,0 (Herbicidal rate of 5% or less (almost no effect))
same,"P: chickweed, herbicidal effect",chickweed [8]; AAH 320 g/ha,5 (Herbicidal rate of 90% or more (almost completely withered))
same,"G: green foxtail, herbicidal effect",green foxtail [9]; AAH 320 g/ha,5 (Herbicidal rate of 90% or more (almost completely withered))
same,"L: windgrass, herbicidal effect",windgrass [10]; AAH 320 g/ha,5 (Herbicidal rate of 90% or more (almost completely withered))
same,"herbicidal effect on E (rice flat sedge), rating 0-5",rice flat sedge; 320 g/ha,4 (Herbicidal rate of 70% or more and less than 90%)
same,"M: velvetleaf, herbicidal effect rating",velvetleaf [11]; AAH 320 g/ha,2 (Herbicidal rate of 20% or more and less than 40%)
same,"L: windgrass, herbicidal effect rating",windgrass [12]; AAH 320 g/ha,3 (Herbicidal rate of 40% or more and less than 70%)
same,"herbicidal effect on H (barnyard grass), rating 0-5",barnyard grass [13]; 320 g/ha,5 (Herbicidal rate of 90% or more (almost completely withered))
same,"P: chickweed, herbicidal effect rating",chickweed [14]; AAH 320 g/ha,5 (Herbicidal rate of 90% or more (almost completely withered))
same,"N: redroot pigweed, herbicidal effect",redroot pigweed [15]; AAH 320 g/ha,5 (Herbicidal rate of 90% or more (almost completely withered))
same,"F: southern crabgrass, herbicidal effect rating",southern crabgrass [16]; AAH 320 g/ha,0 (Herbicidal rate of 5% or less (almost no effect))
same,"I: wild oat, herbicidal effect",wild oat [17]; AAH 320 g/ha,4 (Herbicidal rate of 70% or more and less than 90%)
same,"O: lambsquarters, herbicidal effect rating",lambsquarters [18]; AAH 320 g/ha,3 (Herbicidal rate of 40% or more and less than 70%)
same,"F: southern crabgrass, herbicidal effect",southern crabgrass [19]; AAH 320 g/ha,4 (Herbicidal rate of 70% or more and less than 90%)
same,"H: barnyard grass, herbicidal effect",barnyard grass [20]; AAH 320 g/ha,4 (Herbicidal rate of 70% or more and less than 90%)
same,"O: lambsquarters, herbicidal effect",lambsquarters [21]; AAH 320 g/ha,4 (Herbicidal rate of 70% or more and less than 90%)
same,"G: green foxtail, herbicidal effect rating",green foxtail [22]; AAH 320 g/ha,0 (Herbicidal rate of 5% or less (almost no effect))
same,"K: Italian ryegrass, herbicidal effect",Italian ryegrass [23]; AAH 320 g/ha,2 (Herbicidal rate of 20% or more and less than 40%)
same,"H: barnyard grass, herbicidal effect rating",barnyard grass [24]; AAH 320 g/ha,0 (Herbicidal rate of 5% or less (almost no effect))
same,"R: persian speedwell, herbicidal effect rating",persian speedwell [25]; AAH 320 g/ha,5 (Herbicidal rate of 90% or more (almost completely withered))
Cc1nn(C)c(=O)c(-c2c(-c3cccc(C#N)c3)sc3ccccc23)c1O [1-123],"I: wild oat, herbicidal effect rating",wild oat [1]; AAH 296 g/ha,0 (Herbicidal rate of 5% or less (almost no effect))
same,"J: blackgrass, herbicidal effect rating",blackgrass [2]; AAH 296 g/ha,0 (Herbicidal rate of 5% or less (almost no effect))
same,"N: redroot pigweed, herbicidal effect rating",redroot pigweed [3]; AAH 296 g/ha,4 (Herbicidal rate of 70% or more and less than 90%)
same,"J: blackgrass, herbicidal effect",blackgrass [4]; AAH 296 g/ha,0 (Herbicidal rate of 5% or less (almost no effect))
same,"R: persian speedwell, herbicidal effect",persian speedwell [5]; AAH 296 g/ha,1 (Herbicidal rate of 5% or more and less than 20%)
same,"herbicidal effect on D (Chinese sprangletop), rating 0-5",Chinese sprangletop; 296 g/ha,3 (Herbicidal rate of 40% or more and less than 70%)
same,"M: velvetleaf, herbicidal effect",velvetleaf [6]; AAH 296 g/ha,5 (Herbicidal rate of 90% or more (almost completely withered))
same,"K: Italian ryegrass, herbicidal effect rating",Italian ryegrass [7]; AAH 296 g/ha,0 (Herbicidal rate of 5% or less (almost no effect))
same,"P: chickweed, herbicidal effect",chickweed [8]; AAH 296 g/ha,5 (Herbicidal rate of 90% or more (almost completely withered))
same,"G: green foxtail, herbicidal effect",green foxtail [9]; AAH 296 g/ha,0 (Herbicidal rate of 5% or less (almost no effect))
same,"L: windgrass, herbicidal effect",windgrass [10]; AAH 296 g/ha,0 (Herbicidal rate of 5% or less (almost no effect))
same,"herbicidal effect on E (rice flat sedge), rating 0-5",rice flat sedge; 296 g/ha,3 (Herbicidal rate of 40% or more and less than 70%)
same,"M: velvetleaf, herbicidal effect rating",velvetleaf [11]; AAH 296 g/ha,0 (Herbicidal rate of 5% or less (almost no effect))
same,"L: windgrass, herbicidal effect rating",windgrass [12]; AAH 296 g/ha,0 (Herbicidal rate of 5% or less (almost no effect))
same,"herbicidal effect on H (barnyard grass), rating 0-5",barnyard grass [13]; 296 g/ha,3 (Herbicidal rate of 40% or more and less than 70%)
same,"P: chickweed, herbicidal effect rating",chickweed [14]; AAH 296 g/ha,1 (Herbicidal rate of 5% or more and less than 20%)
same,"N: redroot pigweed, herbicidal effect",redroot pigweed [15]; AAH 296 g/ha,5 (Herbicidal rate of 90% or more (almost completely withered))
same,"F: southern crabgrass, herbicidal effect rating",southern crabgrass [16]; AAH 296 g/ha,0 (Herbicidal rate of 5% or less (almost no effect))
same,"I: wild oat, herbicidal effect",wild oat [17]; AAH 296 g/ha,0 (Herbicidal rate of 5% or less (almost no effect))
same,"O: lambsquarters, herbicidal effect rating",lambsquarters [18]; AAH 296 g/ha,4 (Herbicidal rate of 70% or more and less than 90%)
same,"F: southern crabgrass, herbicidal effect",southern crabgrass [19]; AAH 296 g/ha,0 (Herbicidal rate of 5% or less (almost no effect))
same,"H: barnyard grass, herbicidal effect",barnyard grass [20]; AAH 296 g/ha,0 (Herbicidal rate of 5% or less (almost no effect))
same,"O: lambsquarters, herbicidal effect",lambsquarters [21]; AAH 296 g/ha,3 (Herbicidal rate of 40% or more and less than 70%)
same,"G: green foxtail, herbicidal effect rating",green foxtail [22]; AAH 296 g/ha,0 (Herbicidal rate of 5% or less (almost no effect))
same,"K: Italian ryegrass, herbicidal effect",Italian ryegrass [23]; AAH 296 g/ha,0 (Herbicidal rate of 5% or less (almost no effect))
same,"H: barnyard grass, herbicidal effect rating",barnyard grass [24]; AAH 296 g/ha,0 (Herbicidal rate of 5% or less (almost no effect))
same,"R: persian speedwell, herbicidal effect rating",persian speedwell [25]; AAH 296 g/ha,3 (Herbicidal rate of 40% or more and less than 70%)
